From patent US20250230193A1, “CYCLIC COMPOUND HAVING SELECTIVE KRAS INHIBITORY EFFECT ON HRAS AND NRAS” (CHUGAI SEIYAKU KABUSHIKI KAISHA, priority 2022, published 2025) come the findings set out here.

Test [1] addresses GDP-bound HRAS wild-type protein (Homo sapiens, UniProt P01112). The experiment in a line: Binding to HRAS by surface plasmon resonance (SPR), Single Cycle Kinetics. The settings on record: SPR.
In test [2] the target is GDP-bound NRAS wild-type protein (Homo sapiens, UniProt P01111). The experiment in a line: Binding to NRAS by surface plasmon resonance (SPR), Single Cycle Kinetics. The note with it: SPR. In general terms: SPR reads the build-up and loss of mass on a sensor chip optically.
Setting [3] is: KD ratio, GDP-bound HRAS wild-type vs GDP-bound KRAS wild-type.
Where [4] appears, read: KD ratio, GDP-bound NRAS wild-type vs GDP-bound KRAS wild-type.

The structures appear in SMILES notation. Where a SMILES comes first, the peptide text is derived from it. Bridges are numbered along the chain shown (N, C = ends). [ ]: non-standard residue; d: D form. The star is where a group is joined. hPhe(3-Cl-4-CF3) = N[C@@H](CCc1ccc(C(F)(F)F)c(Cl)c1)C(=O)O; NPrPhe(4-CF3) = CCCN[C@@H](Cc1ccc(C(F)(F)F)cc1)C(=O)O; NMeGly(cPent) = CN[C@H](C(=O)O)C1CCCC1; Pro(4,4-F2) = O=C(O)[C@@H]1CC(F)(F)CN1; Ac4c(3,3-Me2) = CC1(C)CC(N)(C(=O)O)C1; NMeD = CN[C@@H](CC(=O)O)C(=O)O; NMeL = CN[C@@H](CC(C)C)C(=O)O; Morpholide = C1CN(*)CCO1; NMeA = CN[C@@H](C)C(=O)O; Aze = O=C(O)[C@@H]1CCN1; Ac4c = NC1(C(=O)O)CCC1; Sar = CNCC(=O)O

Sequence of GDP-bound NRAS wild-type protein (P01111 whole entry): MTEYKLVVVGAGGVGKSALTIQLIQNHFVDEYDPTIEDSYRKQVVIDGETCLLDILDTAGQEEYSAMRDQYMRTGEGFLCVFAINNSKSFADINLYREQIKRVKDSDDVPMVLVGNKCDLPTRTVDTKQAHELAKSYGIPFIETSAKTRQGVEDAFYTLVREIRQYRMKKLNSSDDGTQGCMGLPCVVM
Sequence of GDP-bound HRAS wild-type protein (P01112 whole entry): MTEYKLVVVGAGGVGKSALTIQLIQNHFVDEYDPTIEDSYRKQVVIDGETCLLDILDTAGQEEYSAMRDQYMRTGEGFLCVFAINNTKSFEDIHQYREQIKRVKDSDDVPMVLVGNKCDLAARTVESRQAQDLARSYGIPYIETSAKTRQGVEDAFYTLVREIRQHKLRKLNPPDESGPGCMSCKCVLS

Consider `CCCN1C(=O)CN(C)C(=O)CN(C)C(=O)[C@H]([C@@H](C)OC)NC(=O)[C@H](CC(C)C)N(C)C(=O)C[C@@H](C(=O)N2CCOCC2)N(C)C(=O)[C@H](C2CCCC2)N(C)C(=O)C2(CC(C)(C)C2)NC(=O)[C@@H]2CCCN2C(=O)[C@H](CCc2ccc(C(F)(F)F)c(Cl)c2)NC(=O)CN(C)C(=O)[C@@H]1Cc1ccc(C(F)(F)F)cc1` [PP1963] ([NMeL]T(Me)[Sar][Sar][NPrPhe(4-CF3)][Sar][hPhe(3-Cl-4-CF3)]P[Ac4c(3,3-Me2)][NMeGly(cPent)][NMeD]-Morpholide; lactam N-11), for which, in test [1] (setting [3]), the “HRAS/KRAS (ratio of KD value for HRAS to KD value for KRAS)” value is “C (A compound having a KD ratio of 0.1 or more and less than 3 is denoted as C)”. Also, the “NRAS/KRAS (ratio of KD value for NRAS to KD value for KRAS)” value in test [2] (setting [4]) is “B (a compound having 3 or more and less than 10 is denoted as B)”.

Consider `CC[C@H](C)[C@@H]1NC(=O)[C@H](CC(C)C)N(C)C(=O)C[C@@H](C(=O)N2CCOCC2)N(C)C(=O)[C@H](C2CCCC2)N(C)C(=O)C2(CCCC2)NC(=O)[C@@H]2CCCN2C(=O)[C@H](CCc2cc(F)c(C(F)(F)F)c(F)c2)NC(=O)CN(C)C(=O)[C@H](Cc2ccc(C(F)(F)F)cc2)N2CCCCC[C@@H](C2=O)N(C)C(=O)CN(CC)C1=O` [PP0483], for which the “HRAS/KRAS (ratio of KD value with respect to GDP-bound HRAS wild-type protein to KD value with respect to KRAS)” value in test [1] was “B (a compound having 3 or more and less than 10 is denoted as B)”. Also, the “NRAS/KRAS (ratio of KD value with respect to GDP-bound NRAS wild-type protein to KD value with respect to KRAS)” value in test [2] was “B (a compound having 3 or more and less than 10 is denoted as B)”.

Take `CCCN1C(=O)[C@@H]2CCN2C(=O)[C@H](C)N(C)C(=O)[C@H]([C@@H](C)CC)NC(=O)[C@H](CC(C)C)N(C)C(=O)C[C@@H](C(=O)N(C)C)N(C)C(=O)[C@H](C2CCCC2)N(C)C(=O)C2(CCC2)NC(=O)[C@@H]2CC(F)(F)CN2C(=O)[C@H](CCc2ccc(C(F)(F)F)c(Cl)c2)NC(=O)CN(C)C(=O)[C@@H]1Cc1ccc(C(F)(F)F)cc1` [PP0437] ([NMeL]I[NMeA][Aze][NPrPhe(4-CF3)][Sar][hPhe(3-Cl-4-CF3)][Pro(4,4-F2)][Ac4c][NMeGly(cPent)][NMeD]-NMe2; lactam N-11): the “HRAS/KRAS (ratio of KD value with respect to GDP-bound HRAS wild-type protein to KD value with respect to KRAS)” value in test [1] was “B (a compound having 3 or more and less than 10 is denoted as B)”. For the same compound, the “NRAS/KRAS (ratio of KD value with respect to GDP-bound NRAS wild-type protein to KD value with respect to KRAS)” value in test [2] is “C (A compound having a KD ratio of 0.1 or more and less than 3 is denoted as C)”.

Regarding `CCO[C@@H]1C[C@H]2C(=O)NC3(CC(C)(C)C3)C(=O)N(C)[C@@H](C(CC)CC)C(=O)N(C)[C@H](C3CCC3)CC(=O)N(C)[C@@H](CC3CC3)C(=O)N[C@@H]([C@@H](C)CC)C(=O)N(C)CC(=O)N(C)[C@H]3C/C=C\CCN(C3=O)[C@@H](Cc3ccc(C(F)(F)F)cc3)C(=O)N(C)CC(=O)N[C@@H](CCc3cc(F)c(C(F)(F)F)c(F)c3)C(=O)N2C1` [PP1634], the “HRAS/KRAS (ratio of KD value for HRAS to KD value for KRAS)” value in test [1] (setting [3]) is “A (a compound having 10 or more and less than 20 is denoted as A)”. The “NRAS/KRAS (ratio of KD value for NRAS to KD value for KRAS)” value in test [2] (setting [4]) was “A (a compound having 10 or more and less than 20 is denoted as A)”.

As for `CC[C@H](C)[C@@H]1NC(=O)[C@H](CC(C)C)N(C)C(=O)C[C@@H](C(=O)N2CCOCC2)N(C)C(=O)[C@H](C2CCCC2)N(C)C(=O)C2(CCCC2)NC(=O)[C@@H]2CCCN2C(=O)[C@H](CCc2cc(F)c(C(F)(F)F)c(F)c2)NC(=O)CN(C)C(=O)[C@H](Cc2ccc(C(F)(F)F)cc2)N2CCCC[C@@H](C2=O)N(C)C(=O)[C@H](CC)N(C)C1=O` [PP0551], in test [1], the “HRAS/KRAS (ratio of KD value with respect to GDP-bound HRAS wild-type protein to KD value with respect to KRAS)” value is “B (a compound having 3 or more and less than 10 is denoted as B)”. Also, the “NRAS/KRAS (ratio of KD value with respect to GDP-bound NRAS wild-type protein to KD value with respect to KRAS)” value in test [2] was “C (A compound having a KD ratio of 0.1 or more and less than 3 is denoted as C)”.

`CCO[C@@H]1C[C@H]2C(=O)NC3(CCC3)C(=O)N(C)[C@@H](C3CCCC3)C(=O)N(C)[C@H](C(=O)N(C)C)CC(=O)N(C)[C@@H](CC)C(=O)N[C@@H]([C@@H](C)CC)C(=O)N(C)CC(=O)N(C)[C@H]3C/C=C\CCN(C3=O)[C@@H](Cc3ccc(C(F)(F)F)cc3)C(=O)N(C)CC(=O)N[C@@H](CCc3cc(F)c(C(F)(F)F)c(F)c3)C(=O)N2C1` [PP0824]: the “HRAS/KRAS (ratio of KD value with respect to HRAS to KD value with respect to KRAS)” value in test [1] (setting [3]) is “A (a compound having 10 or more and less than 20 is denoted as A)”. Further, the “NRAS/KRAS (ratio of KD value with respect to NRAS to KD value with respect to KRAS)” value in test [2] (setting [4]) is “A (a compound having 10 or more and less than 20 is denoted as A)”.

Take `CC[C@H](C)[C@@H]1NC(=O)[C@H](CC)N(C)C(=O)C[C@@H](C(=O)N(C)C)N(C)C(=O)[C@H](C2CCCC2)N(C)C(=O)C2(CCCC2)N(C)C(=O)[C@@H]2C[C@@H](C)CN2C(=O)[C@H](CCc2cc(F)c(C(F)(F)F)c(F)c2)NC(=O)CN(C)C(=O)[C@H](Cc2ccc(C)cc2)N2CC/C=C\C[C@@H](C2=O)N(C)C(=O)CN(C)C1=O` [PP1812]: the “HRAS/KRAS (ratio of KD value for HRAS to KD value for KRAS)” value in test [1] (setting [3]) is “A (a compound having 10 or more and less than 20 is denoted as A)”. Besides, the “NRAS/KRAS (ratio of KD value for NRAS to KD value for KRAS)” value in test [2] (setting [4]) was “A (a compound having 10 or more and less than 20 is denoted as A)”.
